# Literature values as cited in patent US10925895B2, “Composition and method of using medicament for treatment of cancers and tumors” (priority 2014, dated 2021).
# Where two headings read alike, the source gives them in different places.
SMILES,effectiveness against Enterococcus faecalis (Enterococcus faelicalis),effectiveness as tissue dissolving agent (organic tissue; 5.25% for 40 minutes),effectiveness as tissue dissolving agent (organic tissue; at 1.3-2.5%)
"[Ca+2].[OH-].[OH-] [Calcium hydroxide, calcium hydroxide]",ineffective,,
"OCl [Sodium hypochlorite, sodium hypochlorite]",not effective,highly effective,ineffective
